Experimental data: PMC11480411, “Mucosal sugars delineate pyrazine vs pyrazinone autoinducer signaling in Klebsiella oxytoca” (Nature Communications, 2024)

Assays:
Experiment in all cases: PRESTO-Tango GPCR screen
Type in all cases: cell-based
Conditions in all cases: 100 µM
AGTR2 = target: T1, AGTR2 (Homo sapiens, UniProt P50052)
T1 construct: purchased PRESTO-Tango GPCR kit (Roth lab / Addgene)
In short: (§1)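 Receptor activation is detected through β-arrestin-TEV cleavage releasing tTA, which drives luciferase in HTLA cells. Transfected cells receive compound (100 μM final) in DMEM with 10 mM HEPES for 20 h; Bright-Glo luminescence is divided by the PBS-control signal.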

AVPR1B = target: T2, AVPR1B (Homo sapiens, UniProt P47901)
T2 construct: purchased PRESTO-Tango GPCR kit (Roth lab / Addgene)
In short: as §1

CALCRL = target: T3, CALCRL (Homo sapiens, UniProt Q16602)
T3 construct: purchased PRESTO-Tango GPCR kit (Roth lab / Addgene)
In short: as §1

CHRM3 = target: T4, CHRM3 (Homo sapiens, UniProt P20309)
T4 construct: purchased PRESTO-Tango GPCR kit (Roth lab / Addgene)
In short: as §1

CHRM4 = target: T5, CHRM4 (Homo sapiens, UniProt P08173)
T5 construct: purchased PRESTO-Tango GPCR kit (Roth lab / Addgene)
In short: as §1

CMKLR1 = target: T6, CMKLR1 (Homo sapiens, UniProt Q99788)
T6 construct: purchased PRESTO-Tango GPCR kit (Roth lab / Addgene)
In short: as §1

CNR2 = target: T7, CNR2 (Homo sapiens, UniProt P34972)
T7 construct: purchased PRESTO-Tango GPCR kit (Roth lab / Addgene)
In short: as §1

CXCR6 = target: T8, CXCR6 (Homo sapiens, UniProt O00574)
T8 construct: purchased PRESTO-Tango GPCR kit (Roth lab / Addgene)
In short: as §1

DRD4 = target: T9, DRD4 (Homo sapiens, UniProt P21917)
T9 construct: purchased PRESTO-Tango GPCR kit (Roth lab / Addgene)
In short: as §1

FPR3 = target: T10, FPR3 (Homo sapiens, UniProt P25089)
T10 construct: purchased PRESTO-Tango GPCR kit (Roth lab / Addgene)
In short: as §1

GPR111 = target: T11, GPR111 (Homo sapiens, UniProt Q8IZF7)
T11 construct: purchased PRESTO-Tango GPCR kit (Roth lab / Addgene)
In short: as §1

GPR123 = target: T12, GPR123 (Homo sapiens, UniProt Q86SQ6)
T12 construct: purchased PRESTO-Tango GPCR kit (Roth lab / Addgene)
In short: as §1

GPR124 = target: T13, GPR124 (Homo sapiens, UniProt Q96PE1)
T13 construct: purchased PRESTO-Tango GPCR kit (Roth lab / Addgene)
In short: as §1

GPR144 = target: T14, GPR144 (Homo sapiens, UniProt Q7Z7M1)
T14 construct: purchased PRESTO-Tango GPCR kit (Roth lab / Addgene)
In short: as §1

GPR153 = target: T15, GPR153 (Homo sapiens, UniProt Q6NV75)
T15 construct: purchased PRESTO-Tango GPCR kit (Roth lab / Addgene)
In short: as §1

GPR171 = target: T16, GPR171 (Homo sapiens, UniProt O14626)
T16 construct: purchased PRESTO-Tango GPCR kit (Roth lab / Addgene)
In short: as §1

GPR182 = target: T17, GPR182 (Homo sapiens, UniProt O15218)
T17 construct: purchased PRESTO-Tango GPCR kit (Roth lab / Addgene)
In short: as §1

GPR19 = target: T18, GPR19 (Homo sapiens, UniProt Q15760)
T18 construct: purchased PRESTO-Tango GPCR kit (Roth lab / Addgene)
In short: as §1

GPR37L1 = target: T19, GPR37L1 (Homo sapiens, UniProt O60883)
T19 construct: purchased PRESTO-Tango GPCR kit (Roth lab / Addgene)
In short: as §1

GPR61 = target: T20, GPR61 (Homo sapiens, UniProt Q9BZJ8)
T20 construct: purchased PRESTO-Tango GPCR kit (Roth lab / Addgene)
In short: as §1

GRM5 = target: T21, GRM5 (Homo sapiens, UniProt P41594)
T21 construct: purchased PRESTO-Tango GPCR kit (Roth lab / Addgene)
In short: as §1

HTR4 = target: T22, HTR4 (Homo sapiens, UniProt Q13639)
T22 construct: purchased PRESTO-Tango GPCR kit (Roth lab / Addgene)
In short: as §1

LPAR2 = target: T23, LPAR2 (Homo sapiens, UniProt Q9HBW0)
T23 construct: purchased PRESTO-Tango GPCR kit (Roth lab / Addgene)
In short: as §1

LPAR4 = target: T24, LPAR4 (Homo sapiens, UniProt Q99677)
T24 construct: purchased PRESTO-Tango GPCR kit (Roth lab / Addgene)
In short: as §1

NMBR = target: T25, NMBR (Homo sapiens, UniProt P28336)
T25 construct: purchased PRESTO-Tango GPCR kit (Roth lab / Addgene)
In short: as §1

PRRP = target: T26, PRRP (Homo sapiens, UniProt P49683)
T26 construct: purchased PRESTO-Tango GPCR kit (Roth lab / Addgene)
In short: as §1

PTGER1 = target: T27, PTGER1 (Homo sapiens, UniProt P34995)
T27 construct: purchased PRESTO-Tango GPCR kit (Roth lab / Addgene)
In short: as §1

S1PR2 = target: T28, S1PR2 (Homo sapiens, UniProt O95136)
T28 construct: purchased PRESTO-Tango GPCR kit (Roth lab / Addgene)
In short: as §1

S1PR3 = target: T29, S1PR3 (Homo sapiens, UniProt Q99500)
T29 construct: purchased PRESTO-Tango GPCR kit (Roth lab / Addgene)
In short: as §1

SSTR5 = target: T30, SSTR5 (Homo sapiens, UniProt P35346)
T30 construct: purchased PRESTO-Tango GPCR kit (Roth lab / Addgene)
In short: as §1

TAAR2 = target: T31, TAAR2 (Homo sapiens, UniProt Q9P1P5)
T31 construct: purchased PRESTO-Tango GPCR kit (Roth lab / Addgene)
In short: as §1

TAAR6 = target: T32, TAAR6 (Homo sapiens, UniProt Q96RI8)
T32 construct: purchased PRESTO-Tango GPCR kit (Roth lab / Addgene)
In short: as §1

TAAR9 = target: T33, TAAR9 (Homo sapiens, UniProt Q96RI9)
T33 construct: purchased PRESTO-Tango GPCR kit (Roth lab / Addgene)
In short: as §1

TSHR = target: T34, TSHR (Homo sapiens, UniProt P16473)
T34 construct: purchased PRESTO-Tango GPCR kit (Roth lab / Addgene)
In short: as §1

UTS2R = target: T35, UTS2R (Homo sapiens, UniProt Q9UKP6)
T35 construct: purchased PRESTO-Tango GPCR kit (Roth lab / Addgene)
In short: as §1

T6 sequence (Q99788 whole entry): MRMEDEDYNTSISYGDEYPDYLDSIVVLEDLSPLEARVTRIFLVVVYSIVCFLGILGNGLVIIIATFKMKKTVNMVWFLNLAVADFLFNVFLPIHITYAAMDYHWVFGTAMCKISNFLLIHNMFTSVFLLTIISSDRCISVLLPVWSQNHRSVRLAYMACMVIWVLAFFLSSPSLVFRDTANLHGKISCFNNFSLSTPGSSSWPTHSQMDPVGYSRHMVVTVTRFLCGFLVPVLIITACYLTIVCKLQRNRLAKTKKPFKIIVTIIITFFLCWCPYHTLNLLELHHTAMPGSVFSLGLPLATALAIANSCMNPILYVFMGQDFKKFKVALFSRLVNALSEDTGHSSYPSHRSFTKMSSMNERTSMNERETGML
T15 sequence (Q6NV75 whole entry): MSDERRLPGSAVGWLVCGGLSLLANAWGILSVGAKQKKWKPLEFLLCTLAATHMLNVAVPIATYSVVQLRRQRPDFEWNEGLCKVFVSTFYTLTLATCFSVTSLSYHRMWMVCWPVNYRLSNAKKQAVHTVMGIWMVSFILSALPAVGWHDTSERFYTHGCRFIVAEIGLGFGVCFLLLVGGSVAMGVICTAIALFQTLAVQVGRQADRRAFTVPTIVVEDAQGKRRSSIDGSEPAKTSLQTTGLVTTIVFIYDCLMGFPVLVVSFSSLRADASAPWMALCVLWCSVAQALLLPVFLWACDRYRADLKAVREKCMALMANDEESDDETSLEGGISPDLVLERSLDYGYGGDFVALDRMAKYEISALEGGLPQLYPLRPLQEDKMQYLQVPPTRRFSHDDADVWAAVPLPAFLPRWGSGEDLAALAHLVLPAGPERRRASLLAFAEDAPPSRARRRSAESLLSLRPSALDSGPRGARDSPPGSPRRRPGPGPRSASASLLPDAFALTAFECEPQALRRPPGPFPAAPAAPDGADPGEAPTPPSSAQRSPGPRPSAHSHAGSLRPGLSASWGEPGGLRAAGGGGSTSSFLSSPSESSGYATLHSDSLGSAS
T20 sequence (Q9BZJ8 whole entry): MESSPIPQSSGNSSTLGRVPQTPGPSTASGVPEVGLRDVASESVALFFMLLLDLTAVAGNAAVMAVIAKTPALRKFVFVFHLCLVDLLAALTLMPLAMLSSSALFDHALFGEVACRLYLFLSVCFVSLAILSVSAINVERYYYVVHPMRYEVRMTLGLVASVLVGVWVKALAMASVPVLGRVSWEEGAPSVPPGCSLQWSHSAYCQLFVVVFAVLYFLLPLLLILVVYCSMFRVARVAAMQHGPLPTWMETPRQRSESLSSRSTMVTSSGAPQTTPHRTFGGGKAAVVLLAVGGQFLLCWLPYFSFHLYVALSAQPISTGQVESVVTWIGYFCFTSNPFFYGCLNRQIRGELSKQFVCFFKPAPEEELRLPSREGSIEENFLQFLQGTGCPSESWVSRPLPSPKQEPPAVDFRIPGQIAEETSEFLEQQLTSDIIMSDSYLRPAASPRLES
T22 sequence (Q13639 whole entry): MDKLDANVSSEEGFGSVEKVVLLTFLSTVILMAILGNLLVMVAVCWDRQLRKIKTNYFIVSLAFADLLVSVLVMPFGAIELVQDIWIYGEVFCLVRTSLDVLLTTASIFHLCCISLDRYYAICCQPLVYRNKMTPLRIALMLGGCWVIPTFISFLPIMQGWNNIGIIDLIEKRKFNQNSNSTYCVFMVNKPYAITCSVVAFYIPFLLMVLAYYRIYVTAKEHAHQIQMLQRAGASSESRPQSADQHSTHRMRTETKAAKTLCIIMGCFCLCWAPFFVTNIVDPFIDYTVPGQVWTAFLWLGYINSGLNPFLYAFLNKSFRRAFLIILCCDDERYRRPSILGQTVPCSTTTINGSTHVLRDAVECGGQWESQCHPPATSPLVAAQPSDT
T35 sequence (Q9UKP6 whole entry): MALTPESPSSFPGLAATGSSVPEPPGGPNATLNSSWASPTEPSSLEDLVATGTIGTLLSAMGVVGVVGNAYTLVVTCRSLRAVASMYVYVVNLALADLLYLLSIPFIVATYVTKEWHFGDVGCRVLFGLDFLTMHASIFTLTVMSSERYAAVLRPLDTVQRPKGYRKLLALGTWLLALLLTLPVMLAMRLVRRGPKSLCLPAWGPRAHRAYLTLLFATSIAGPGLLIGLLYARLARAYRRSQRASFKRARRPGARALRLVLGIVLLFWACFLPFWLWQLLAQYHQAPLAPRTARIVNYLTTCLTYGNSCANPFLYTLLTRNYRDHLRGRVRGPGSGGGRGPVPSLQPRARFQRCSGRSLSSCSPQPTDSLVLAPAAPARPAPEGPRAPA
T17 sequence (O15218 whole entry): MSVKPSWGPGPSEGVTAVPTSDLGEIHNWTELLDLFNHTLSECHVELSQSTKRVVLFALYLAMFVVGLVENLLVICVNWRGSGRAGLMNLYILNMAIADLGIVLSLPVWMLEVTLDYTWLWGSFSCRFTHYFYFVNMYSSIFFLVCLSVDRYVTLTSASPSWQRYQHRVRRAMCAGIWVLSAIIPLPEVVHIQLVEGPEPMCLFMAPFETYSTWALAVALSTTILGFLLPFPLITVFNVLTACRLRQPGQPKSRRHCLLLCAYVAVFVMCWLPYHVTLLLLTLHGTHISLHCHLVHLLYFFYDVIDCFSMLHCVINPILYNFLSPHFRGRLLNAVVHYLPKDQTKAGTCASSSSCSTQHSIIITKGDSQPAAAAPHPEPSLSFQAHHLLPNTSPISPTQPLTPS
T28 sequence (O95136 whole entry): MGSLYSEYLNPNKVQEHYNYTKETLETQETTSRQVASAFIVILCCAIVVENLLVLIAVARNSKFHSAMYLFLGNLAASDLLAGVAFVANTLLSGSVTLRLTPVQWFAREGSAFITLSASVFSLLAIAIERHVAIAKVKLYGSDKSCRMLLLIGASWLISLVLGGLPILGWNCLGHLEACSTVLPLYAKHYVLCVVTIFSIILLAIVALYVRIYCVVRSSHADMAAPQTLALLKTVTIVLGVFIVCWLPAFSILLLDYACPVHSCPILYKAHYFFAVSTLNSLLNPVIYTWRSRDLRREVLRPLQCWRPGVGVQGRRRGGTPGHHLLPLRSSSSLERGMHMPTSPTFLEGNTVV
T7 sequence (P34972 whole entry): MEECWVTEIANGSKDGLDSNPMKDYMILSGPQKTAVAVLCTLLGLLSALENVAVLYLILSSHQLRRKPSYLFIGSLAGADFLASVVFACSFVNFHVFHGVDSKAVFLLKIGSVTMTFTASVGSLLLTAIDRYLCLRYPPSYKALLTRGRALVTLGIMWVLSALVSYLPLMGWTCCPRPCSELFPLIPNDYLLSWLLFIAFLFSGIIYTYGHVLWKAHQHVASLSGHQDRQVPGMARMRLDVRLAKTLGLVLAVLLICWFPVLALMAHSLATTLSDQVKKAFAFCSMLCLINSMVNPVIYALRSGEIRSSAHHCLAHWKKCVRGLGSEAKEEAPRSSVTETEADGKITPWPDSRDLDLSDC
T27 sequence (P34995 whole entry): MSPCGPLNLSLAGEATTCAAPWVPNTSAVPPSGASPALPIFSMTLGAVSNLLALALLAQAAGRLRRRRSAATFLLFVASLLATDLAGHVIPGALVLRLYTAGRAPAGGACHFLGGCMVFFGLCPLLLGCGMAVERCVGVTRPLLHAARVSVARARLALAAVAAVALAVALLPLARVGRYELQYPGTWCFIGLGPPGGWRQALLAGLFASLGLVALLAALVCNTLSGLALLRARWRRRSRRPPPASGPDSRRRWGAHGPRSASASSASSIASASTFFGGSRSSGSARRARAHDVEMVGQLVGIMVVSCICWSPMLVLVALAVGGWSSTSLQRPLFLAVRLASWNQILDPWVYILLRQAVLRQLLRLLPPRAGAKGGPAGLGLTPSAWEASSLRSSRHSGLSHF
T29 sequence (Q99500 whole entry): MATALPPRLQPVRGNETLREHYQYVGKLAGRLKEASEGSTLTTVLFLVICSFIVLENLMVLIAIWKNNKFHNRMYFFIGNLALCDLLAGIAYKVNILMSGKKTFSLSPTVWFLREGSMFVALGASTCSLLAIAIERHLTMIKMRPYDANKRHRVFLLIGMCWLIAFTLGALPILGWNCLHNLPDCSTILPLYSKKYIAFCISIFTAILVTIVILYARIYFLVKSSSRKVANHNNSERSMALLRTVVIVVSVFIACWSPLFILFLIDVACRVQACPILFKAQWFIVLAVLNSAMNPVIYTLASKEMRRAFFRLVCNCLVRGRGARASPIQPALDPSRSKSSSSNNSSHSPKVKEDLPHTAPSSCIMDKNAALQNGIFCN
T18 sequence (Q15760 whole entry): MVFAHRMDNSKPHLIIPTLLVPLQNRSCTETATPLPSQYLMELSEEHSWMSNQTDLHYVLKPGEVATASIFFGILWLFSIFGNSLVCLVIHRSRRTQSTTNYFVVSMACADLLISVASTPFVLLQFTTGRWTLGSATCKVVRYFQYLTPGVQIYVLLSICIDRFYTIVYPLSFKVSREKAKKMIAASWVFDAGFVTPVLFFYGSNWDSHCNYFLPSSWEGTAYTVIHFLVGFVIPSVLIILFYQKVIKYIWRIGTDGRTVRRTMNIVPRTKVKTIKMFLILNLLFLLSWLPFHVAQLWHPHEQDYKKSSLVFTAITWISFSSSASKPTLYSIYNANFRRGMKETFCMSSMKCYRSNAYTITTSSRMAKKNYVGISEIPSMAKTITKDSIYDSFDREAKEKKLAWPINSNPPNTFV
T23 sequence (Q9HBW0 whole entry): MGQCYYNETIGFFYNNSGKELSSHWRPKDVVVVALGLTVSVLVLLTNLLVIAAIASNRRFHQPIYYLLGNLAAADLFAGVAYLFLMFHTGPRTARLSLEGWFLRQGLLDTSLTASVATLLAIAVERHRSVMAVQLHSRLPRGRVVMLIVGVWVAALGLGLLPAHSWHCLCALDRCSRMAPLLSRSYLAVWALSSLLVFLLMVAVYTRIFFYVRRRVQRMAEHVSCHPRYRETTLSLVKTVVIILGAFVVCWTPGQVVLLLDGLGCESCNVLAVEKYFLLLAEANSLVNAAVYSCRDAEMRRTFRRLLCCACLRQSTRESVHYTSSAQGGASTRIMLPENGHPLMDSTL

| Compound | GPCR activation (heatmap value) (AGTR2) | GPCR activation (heatmap value) (AVPR1B) | GPCR activation (heatmap value) (CALCRL) | GPCR activation (heatmap value) (CHRM3) | GPCR activation (heatmap value) (CHRM4) | GPCR activation (heatmap value) (CMKLR1) | GPCR activation (heatmap value) (CNR2) | GPCR activation (heatmap value) (CXCR6) | GPCR activation (heatmap value) (DRD4) | GPCR activation (heatmap value) (FPR3) | GPCR activation (heatmap value) (GPR111) | GPCR activation (heatmap value) (GPR123) | GPCR activation (heatmap value) (GPR124) | GPCR activation (heatmap value) (GPR144) | GPCR activation (heatmap value) (GPR153) | GPCR activation (heatmap value) (GPR171) | GPCR activation (heatmap value) (GPR182) | GPCR activation (heatmap value) (GPR19) | GPCR activation (heatmap value) (GPR37L1) | GPCR activation (heatmap value) (GPR61) | other results |
| --- | --- | --- | --- | --- | --- | --- | --- | --- | --- | --- | --- | --- | --- | --- | --- | --- | --- | --- | --- | --- | --- |
| CC(C)Cc1ncc(CCCCNC(=N)N)[nH]c1=O [3-Homo] | 0.1974 | -0.01402 | 1.281 | 0.5889 | 0.08984 | -1.034 | 0.8114 | 1.014 | -0.04181 | 0.135 | -0.06522 | -0.1319 | -0.5918 | -0.2529 | -0.4672 | -0.9424 | -0.244 | -0.2115 | 0.03037 | 1.164 | GPCR activation (heatmap value) (GRM5): -0.9141; GPCR activation (heatmap value) (HTR4): -0.1279; GPCR activation (heatmap value) (LPAR2): 0.05246; GPCR activation (heatmap value) (LPAR4): -0.163; GPCR activation (heatmap value) (NMBR): 0.06446; GPCR activation (heatmap value) (PRRP): 1.001; GPCR activation (heatmap value) (PTGER1): 0.737; GPCR activation (heatmap value) (S1PR2): -0.09813; GPCR activation (heatmap value) (S1PR3): -0.09323; GPCR activation (heatmap value) (SSTR5): -0.02493; GPCR activation (heatmap value) (TAAR2): 0.3187; GPCR activation (heatmap value) (TAAR6): 0.5054; GPCR activation (heatmap value) (TAAR9): -0.5012; GPCR activation (heatmap value) (TSHR): -0.3975; GPCR activation (heatmap value) (UTS2R): -1.423 |
| CC(C)Cc1ncc(CCCNC(=N)N)[nH]c1=O [compound 3] | -0.3239 | 0.6298 | -0.1816 | -0.8614 | 0.4059 | 0.8088 | -0.04866 | 0.09324 | 0.4609 | 0.01401 | -1.0133 | -0.4576 | 0.8185 | 0.6653 | 0.1913 | 0.9197 | -0.4224 | -0.1336 | -0.6695 | 0.4932 | GPCR activation (heatmap value) (GRM5): 0.02679; GPCR activation (heatmap value) (HTR4): -1.236; GPCR activation (heatmap value) (LPAR2): -0.4851; GPCR activation (heatmap value) (LPAR4): 0.3739; GPCR activation (heatmap value) (NMBR): 0.762; GPCR activation (heatmap value) (PRRP): 1.542; GPCR activation (heatmap value) (PTGER1): -0.585; GPCR activation (heatmap value) (S1PR2): 0.5246; GPCR activation (heatmap value) (S1PR3): -0.834; GPCR activation (heatmap value) (SSTR5): -1.082; GPCR activation (heatmap value) (TAAR2): 0.1553; GPCR activation (heatmap value) (TAAR6): 0.2505; GPCR activation (heatmap value) (TAAR9): -0.2146; GPCR activation (heatmap value) (TSHR): 0.2016; GPCR activation (heatmap value) (UTS2R): 0.9484 |
